From ChEMBL document CHEMBL1201862, “PubChem BioAssay data set” (2004)
Active and inactive are the calls of the source.

Experiments:
Melanocortin receptor 4 = Melanocortin receptor 4 (Homo sapiens, UniProt P32245); format: functional, cell-based;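 note: Cell-based assay with luminescence read-out, confirmatory dose-response testing for agonist activity of biased ligands at MC4R; human U2OS cells with tagged receptor and beta-arrestin; potency of agonists that increase receptor coupling to beta-arrestin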
Interleukin-8 [1] = biological target: T1, Interleukin-8 (Homo sapiens, UniProt P10145); experiment: Dose Response confirmation of uHTS small molecule hits for cystic fibrosis induced NFkb Inhibitors in a TNFa-induced IL8 counterscreen.; format: functional; conditions: read-out: IC50_Mean
T1 sequence (P10145 whole entry): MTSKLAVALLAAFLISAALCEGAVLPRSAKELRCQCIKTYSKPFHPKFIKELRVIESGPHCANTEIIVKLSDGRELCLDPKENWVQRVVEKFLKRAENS

[2] = biological target: Nucleotide-binding oligomerization domain-containing protein 2 (Homo sapiens, UniProt Q9HC29); experiment: inhibition of NOD2-driven NF-kB reporter – cell-based, luminescence, uHTS, HEK293 (AID 1566); format: functional
HEK293 [3] = experiment: inhibition of NOD1-driven NF-kB reporter – cell-based, luminescence, uHTS, primary screen (AID 1578); format: functional; conditions: Homo sapiens
Interleukin-8 [4] = biological target: T1, Interleukin-8; experiment: Dose Response confirmation of uHTS small molecule hits for cystic fibrosis induced NFkb Inhibitors in a PAF-induced IL8 counterscreen.; format: functional; conditions: read-out: IC50_Mean
HEK293 [5] = experiment: cells; format: functional, cell-based; conditions: Homo sapiens
HEK293 [6] = experiment: cells; format: functional, cell-based; conditions: Homo sapiens; remark: listed apart in the source
HEK293 [7] = experiment: cells; format: functional, cell-based; conditions: Homo sapiens; remark: listed apart in the source
HEK293 [8] = experiment: NOD2 signaling inhibitors in MDP-stimulated cells, cell-based, uHTS, luminescence (AID 2001); format: functional; conditions: Homo sapiens
[9] = biological target: Neuropeptides B/W receptor type 1 (Homo sapiens, UniProt P48145); experiment: human NPBW1 receptor blockade, IC50 – cell-based, fluorescence, dose response, set 6, late-stage follow-up (AID 588583); format: functional
[10] = biological target: Melanin-concentrating hormone receptor 1 (Homo sapiens, UniProt Q99705); experiment: Late-stage fluorescence-based counterscreen for antagonists of the G-protein coupled receptor 7 (GPR7): cell-based dose response assay to identify antagonists of the melanin-concentrating hormone receptor 1 (MCHR1) Set 6.; format: functional
[11] = biological target: T2, High affinity choline transporter 1 (Homo sapiens, UniProt Q9GZV3); experiment: human choline transporter blockers, potency – cell-based, 10-point CRC, membrane potential dye, dose response (AID 588401); format: functional;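 note: membrane potential dye fluorescence of choline-evoked depolarization via CHT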
T2 sequence (Q9GZV3 whole entry): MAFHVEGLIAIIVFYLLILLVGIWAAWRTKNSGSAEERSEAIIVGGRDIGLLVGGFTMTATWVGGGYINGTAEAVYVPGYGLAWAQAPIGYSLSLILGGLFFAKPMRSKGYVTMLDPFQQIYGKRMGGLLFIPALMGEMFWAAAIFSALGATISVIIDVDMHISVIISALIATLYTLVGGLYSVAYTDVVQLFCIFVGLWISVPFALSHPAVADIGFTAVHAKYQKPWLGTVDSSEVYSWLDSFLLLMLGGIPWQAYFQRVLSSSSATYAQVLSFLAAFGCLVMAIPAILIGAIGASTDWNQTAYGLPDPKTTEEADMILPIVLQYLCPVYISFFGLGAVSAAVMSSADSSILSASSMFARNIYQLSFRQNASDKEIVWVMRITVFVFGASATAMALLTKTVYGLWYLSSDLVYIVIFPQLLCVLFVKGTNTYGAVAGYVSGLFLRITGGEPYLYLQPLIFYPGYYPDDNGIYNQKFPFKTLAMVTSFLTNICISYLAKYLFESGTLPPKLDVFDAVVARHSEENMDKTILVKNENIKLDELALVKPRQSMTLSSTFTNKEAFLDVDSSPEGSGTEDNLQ

[12] = biological target: T2, High affinity choline transporter 1; experiment: human choline transporter blockers, potency – cell-based, 5-point CRC, membrane potential dye, dose response (AID 504840); format: functional

Chain of Neuropeptides B/W receptor type 1 (P48145 whole entry): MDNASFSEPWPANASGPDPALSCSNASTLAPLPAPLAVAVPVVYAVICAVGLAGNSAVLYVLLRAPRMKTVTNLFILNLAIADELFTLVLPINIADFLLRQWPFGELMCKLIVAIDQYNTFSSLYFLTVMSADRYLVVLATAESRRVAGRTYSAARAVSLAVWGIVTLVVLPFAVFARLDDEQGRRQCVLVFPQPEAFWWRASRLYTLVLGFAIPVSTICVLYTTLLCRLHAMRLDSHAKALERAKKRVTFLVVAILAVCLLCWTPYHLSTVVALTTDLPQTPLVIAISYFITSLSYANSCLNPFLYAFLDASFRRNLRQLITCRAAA
Chain of Melanin-concentrating hormone receptor 1 (Q99705 whole entry): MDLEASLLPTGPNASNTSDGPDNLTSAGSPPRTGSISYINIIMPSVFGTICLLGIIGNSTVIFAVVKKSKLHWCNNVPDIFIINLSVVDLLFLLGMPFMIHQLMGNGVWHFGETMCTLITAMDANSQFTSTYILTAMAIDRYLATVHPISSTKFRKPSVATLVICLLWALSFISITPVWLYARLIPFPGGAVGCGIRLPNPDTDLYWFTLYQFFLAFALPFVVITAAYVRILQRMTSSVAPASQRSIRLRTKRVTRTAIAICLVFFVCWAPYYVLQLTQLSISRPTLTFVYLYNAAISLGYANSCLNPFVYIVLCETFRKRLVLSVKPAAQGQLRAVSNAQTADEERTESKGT
Chain of Nucleotide-binding oligomerization domain-containing protein 2 (Q9HC29 whole entry, the tested form may be a part): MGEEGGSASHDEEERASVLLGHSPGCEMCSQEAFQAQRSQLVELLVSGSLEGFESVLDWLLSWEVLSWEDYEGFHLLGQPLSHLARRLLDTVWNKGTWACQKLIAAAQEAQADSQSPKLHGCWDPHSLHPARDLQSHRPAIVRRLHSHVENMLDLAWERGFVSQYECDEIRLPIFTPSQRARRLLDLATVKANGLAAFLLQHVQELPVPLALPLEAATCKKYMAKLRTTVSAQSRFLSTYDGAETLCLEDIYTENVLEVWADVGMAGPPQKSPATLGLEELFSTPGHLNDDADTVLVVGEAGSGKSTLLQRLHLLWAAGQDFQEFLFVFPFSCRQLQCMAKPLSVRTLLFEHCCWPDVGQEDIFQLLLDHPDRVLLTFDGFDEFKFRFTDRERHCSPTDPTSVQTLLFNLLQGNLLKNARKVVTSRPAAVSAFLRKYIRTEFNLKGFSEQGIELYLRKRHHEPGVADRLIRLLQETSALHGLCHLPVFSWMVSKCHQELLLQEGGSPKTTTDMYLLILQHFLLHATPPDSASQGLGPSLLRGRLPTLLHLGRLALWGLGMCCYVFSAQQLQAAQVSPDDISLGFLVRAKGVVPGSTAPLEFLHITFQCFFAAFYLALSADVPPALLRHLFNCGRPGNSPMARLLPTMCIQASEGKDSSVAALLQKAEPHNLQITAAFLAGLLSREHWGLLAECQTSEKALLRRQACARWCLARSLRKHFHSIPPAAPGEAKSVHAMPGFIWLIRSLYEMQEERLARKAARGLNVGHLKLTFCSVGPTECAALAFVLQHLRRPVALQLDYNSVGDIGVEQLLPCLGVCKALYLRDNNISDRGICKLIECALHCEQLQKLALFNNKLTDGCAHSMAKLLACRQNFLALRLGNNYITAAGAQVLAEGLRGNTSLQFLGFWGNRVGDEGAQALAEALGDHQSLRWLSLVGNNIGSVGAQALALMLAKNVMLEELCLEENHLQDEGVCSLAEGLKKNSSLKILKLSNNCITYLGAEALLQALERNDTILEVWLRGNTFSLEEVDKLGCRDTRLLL
Chain of Melanocortin receptor 4 (P32245 whole entry): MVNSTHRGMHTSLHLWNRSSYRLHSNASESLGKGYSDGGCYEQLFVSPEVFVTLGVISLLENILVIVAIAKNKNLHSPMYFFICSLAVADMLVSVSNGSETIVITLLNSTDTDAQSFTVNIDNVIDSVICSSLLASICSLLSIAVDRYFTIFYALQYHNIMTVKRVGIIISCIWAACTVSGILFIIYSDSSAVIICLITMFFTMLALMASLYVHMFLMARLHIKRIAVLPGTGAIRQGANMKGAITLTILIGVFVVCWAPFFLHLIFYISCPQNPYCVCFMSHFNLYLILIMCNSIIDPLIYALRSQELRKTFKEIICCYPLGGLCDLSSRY

Compound: NC(Cc1ccc(Cl)cc1)c1csc(Nc2ccc(-c3ccccc3)nn2)n1 (stereo not given)
- EC50 (Melanocortin receptor 4): > 89.2 µM (inactive)

Compound: CCSc1nsc(NC(=O)Nc2cccc(C(C)=O)c2)n1
- IC50 (Interleukin-8 [1]): 1.77 µM (active)
- EC50 [2]: 6.47 µM (active)
- EC50 (HEK293 [3]): 4.27 µM (active)
- IC50 (Interleukin-8 [4]): 5.42 µM (active)
- IC50 (HEK293 [5]): > 20 µM (inactive)
- IC50 (HEK293 [6]): > 20 µM (inactive)
- IC50 (HEK293 [7]): 1.27 µM (active)
- IC50 (HEK293 [8]): 2.39 µM (active)

Compound: O=c1c(-c2ccccc2F)c(Br)cnn1Cc1cccc2ccccc12
- IC50 [9]: 3.58 µM (active)
- IC50 [10]: 3.58 µM (active)

Compound: CCOc1ccc(C(C#N)c2c(Br)cnn(Cc3cccc4ccccc34)c2=O)cc1 (stereo not given)
- IC50 [9]: 0.4 µM (active)
- IC50 [10]: 0.4 µM (active)

Compound: C/C(=N\N=C(N)N)c1ccc(Cl)cc1
- IC50 [11]: 4.01 µM (active)
- IC50 [12]: 7.39 µM (active)
